# Test results as given in patent US20130040935A1, “CYCLIC KETO-ENOLS FOR THERAPY” (BAYER INTELLECTUAL PROPERTY GMBH, priority 2010, published 2013).
# Read-outs that look alike come from different tables or passages of the source.
# Key:
# [1] = biological target: human ACC2 (acetyl-coenzyme A carboxylase 2) (Homo sapiens, UniProt O00763); test: Human ACC2 enzyme assay, Assay B2 (ADP-Glo);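 also: human ACC2 activity read as ADP product, detected by luciferase glow luminescence after residual ATP removal, enzyme near 2 ng/µl in linear range, detection steps at 22 °C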
# Sequence of human ACC2 (acetyl-coenzyme A carboxylase 2) (O00763 27-2458 limits assumed): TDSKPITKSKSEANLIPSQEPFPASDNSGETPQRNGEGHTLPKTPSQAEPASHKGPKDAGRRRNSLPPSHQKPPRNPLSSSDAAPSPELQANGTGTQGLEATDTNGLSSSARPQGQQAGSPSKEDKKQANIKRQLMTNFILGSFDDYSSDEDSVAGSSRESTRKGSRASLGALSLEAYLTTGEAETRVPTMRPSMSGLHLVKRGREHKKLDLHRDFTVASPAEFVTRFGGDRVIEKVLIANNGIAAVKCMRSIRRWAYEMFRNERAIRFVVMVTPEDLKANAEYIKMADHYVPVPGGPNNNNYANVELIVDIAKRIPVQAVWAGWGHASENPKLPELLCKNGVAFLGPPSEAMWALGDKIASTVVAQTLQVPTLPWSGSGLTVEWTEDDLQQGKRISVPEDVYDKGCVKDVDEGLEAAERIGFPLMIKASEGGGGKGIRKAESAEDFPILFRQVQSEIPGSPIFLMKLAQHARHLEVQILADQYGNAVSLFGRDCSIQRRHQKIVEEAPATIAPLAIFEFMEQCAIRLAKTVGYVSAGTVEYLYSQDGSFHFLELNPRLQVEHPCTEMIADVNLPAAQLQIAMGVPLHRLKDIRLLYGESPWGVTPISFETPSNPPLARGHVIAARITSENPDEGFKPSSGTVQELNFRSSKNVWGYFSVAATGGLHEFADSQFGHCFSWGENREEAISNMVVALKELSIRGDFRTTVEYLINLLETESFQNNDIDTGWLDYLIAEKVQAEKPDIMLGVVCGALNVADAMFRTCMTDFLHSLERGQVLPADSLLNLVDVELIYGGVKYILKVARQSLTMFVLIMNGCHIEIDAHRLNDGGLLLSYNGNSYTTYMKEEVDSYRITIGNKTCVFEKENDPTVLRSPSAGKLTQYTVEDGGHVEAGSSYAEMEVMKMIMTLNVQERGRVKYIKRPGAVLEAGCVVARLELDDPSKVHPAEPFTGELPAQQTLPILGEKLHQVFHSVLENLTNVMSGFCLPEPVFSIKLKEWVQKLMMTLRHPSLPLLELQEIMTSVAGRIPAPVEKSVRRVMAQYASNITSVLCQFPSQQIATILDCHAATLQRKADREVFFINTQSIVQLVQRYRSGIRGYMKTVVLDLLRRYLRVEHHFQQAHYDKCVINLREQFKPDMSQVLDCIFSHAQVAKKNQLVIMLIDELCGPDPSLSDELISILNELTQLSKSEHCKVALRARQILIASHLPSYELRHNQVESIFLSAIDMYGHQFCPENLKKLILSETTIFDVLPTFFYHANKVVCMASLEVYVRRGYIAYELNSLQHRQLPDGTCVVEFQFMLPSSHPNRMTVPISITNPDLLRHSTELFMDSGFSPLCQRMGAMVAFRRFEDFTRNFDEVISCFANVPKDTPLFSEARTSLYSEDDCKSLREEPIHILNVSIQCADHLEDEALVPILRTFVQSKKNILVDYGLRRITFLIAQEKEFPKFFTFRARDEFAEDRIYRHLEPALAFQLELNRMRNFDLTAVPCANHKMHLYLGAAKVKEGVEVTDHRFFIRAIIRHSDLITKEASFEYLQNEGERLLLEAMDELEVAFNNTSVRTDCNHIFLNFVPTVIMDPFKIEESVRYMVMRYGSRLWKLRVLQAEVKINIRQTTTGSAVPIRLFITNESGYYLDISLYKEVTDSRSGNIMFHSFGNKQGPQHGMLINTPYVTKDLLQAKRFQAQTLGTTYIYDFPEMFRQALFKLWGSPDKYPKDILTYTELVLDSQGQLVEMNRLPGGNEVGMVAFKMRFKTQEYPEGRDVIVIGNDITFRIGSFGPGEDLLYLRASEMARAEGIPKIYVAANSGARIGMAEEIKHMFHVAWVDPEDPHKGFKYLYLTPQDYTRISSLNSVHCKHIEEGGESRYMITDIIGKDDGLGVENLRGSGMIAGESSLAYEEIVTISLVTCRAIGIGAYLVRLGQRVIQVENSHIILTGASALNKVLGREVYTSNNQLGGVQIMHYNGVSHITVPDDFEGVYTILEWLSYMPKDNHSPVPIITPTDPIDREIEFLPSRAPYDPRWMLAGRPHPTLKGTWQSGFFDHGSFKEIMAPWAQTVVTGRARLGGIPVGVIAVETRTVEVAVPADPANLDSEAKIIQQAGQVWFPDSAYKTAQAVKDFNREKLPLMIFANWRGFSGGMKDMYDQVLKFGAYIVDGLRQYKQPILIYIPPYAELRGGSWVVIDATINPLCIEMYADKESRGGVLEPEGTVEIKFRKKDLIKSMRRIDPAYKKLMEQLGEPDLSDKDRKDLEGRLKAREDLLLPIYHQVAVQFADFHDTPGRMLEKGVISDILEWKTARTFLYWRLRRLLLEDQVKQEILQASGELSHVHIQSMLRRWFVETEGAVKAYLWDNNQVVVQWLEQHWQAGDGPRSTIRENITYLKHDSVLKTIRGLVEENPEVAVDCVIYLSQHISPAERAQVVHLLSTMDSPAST
# Protocol: The hACC2-inhibitory action of the substances of the present invention was measured in the hACC2 assay described in the paragraphs below.
# Essentially, the enzyme activity is measured by quantifying the adenosine diphosphate (ADP) formed as a byproduct of the enzyme reactions using the ADP-Glo™ detection system from Promega. In this test, initially the adenosine triphosphate (ATP) not consumed in the enzyme reaction is converted quantitatively with an adenylate cyclase (“ADP-GLO reagent”) into cAMP, the adenylate cyclase is then stopped and (“kinase detection reagent”) the ADP formed is subsequently converted into ATP, which is converted in a luciferase-based reaction into a glow luminescence signal.
# The concentration of the hACC2 was adapted to the respective activity of the enzyme and adjusted such that the assay operated in the linear range. Typical concentrations were in the range of 2 ng/μl. […] The amount of light emitted was taken as a measure for the amount of ADP formed and thus for the enzyme activity of the hACC2.
# [2] = biological target: recombinant human ACC1 (Homo sapiens, UniProt Q13085); test: Human ACC1 enzyme assay, Assay A1 (HTRF ADP immunoassay);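 also: ADP generated by the enzyme quantified via competitive time-resolved FRET, read as europium cryptate to d2 energy transfer after 1 h at 22 °C with labelled ADP tracer and anti-ADP antibody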
# Protocol: The inhibitory activity of the substances of this invention with regard to acetyl-CoA carboxylase 1 (ACC1) was measured using the ACC1 assay described in the paragraphs below. The basic principle of the assay is the measurement of adenosine diphosphate (ADP), which is formed as a by-product, by means of an HTRF®-based competitive immunoassay (HTRF=Homogeneous Time Resolved Fluorescence).
# Typical concentrations were in the range of 2.5 ng/μl.
# The amount of complex between d2-labelled ADP and europium cryptate-labelled anti-ADP antibody was then determined by measuring the resonance energy transfer from the europium cryptate to d2.
# [3] = biological target: acetyl-CoA carboxylase 2 (ACC2) (Homo sapiens, UniProt O00763); test: Human ACC2 enzyme assay, Assay A2 (HTRF ADP immunoassay);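 also: ADP generated by ACC2 quantified via competitive time-resolved FRET between europium cryptate anti-ADP antibody and d2-tagged ADP, enzyme kept in linear range near 0.6 ng/µl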
# Sequence of acetyl-CoA carboxylase 2 (ACC2) (O00763 39-2458 limits assumed): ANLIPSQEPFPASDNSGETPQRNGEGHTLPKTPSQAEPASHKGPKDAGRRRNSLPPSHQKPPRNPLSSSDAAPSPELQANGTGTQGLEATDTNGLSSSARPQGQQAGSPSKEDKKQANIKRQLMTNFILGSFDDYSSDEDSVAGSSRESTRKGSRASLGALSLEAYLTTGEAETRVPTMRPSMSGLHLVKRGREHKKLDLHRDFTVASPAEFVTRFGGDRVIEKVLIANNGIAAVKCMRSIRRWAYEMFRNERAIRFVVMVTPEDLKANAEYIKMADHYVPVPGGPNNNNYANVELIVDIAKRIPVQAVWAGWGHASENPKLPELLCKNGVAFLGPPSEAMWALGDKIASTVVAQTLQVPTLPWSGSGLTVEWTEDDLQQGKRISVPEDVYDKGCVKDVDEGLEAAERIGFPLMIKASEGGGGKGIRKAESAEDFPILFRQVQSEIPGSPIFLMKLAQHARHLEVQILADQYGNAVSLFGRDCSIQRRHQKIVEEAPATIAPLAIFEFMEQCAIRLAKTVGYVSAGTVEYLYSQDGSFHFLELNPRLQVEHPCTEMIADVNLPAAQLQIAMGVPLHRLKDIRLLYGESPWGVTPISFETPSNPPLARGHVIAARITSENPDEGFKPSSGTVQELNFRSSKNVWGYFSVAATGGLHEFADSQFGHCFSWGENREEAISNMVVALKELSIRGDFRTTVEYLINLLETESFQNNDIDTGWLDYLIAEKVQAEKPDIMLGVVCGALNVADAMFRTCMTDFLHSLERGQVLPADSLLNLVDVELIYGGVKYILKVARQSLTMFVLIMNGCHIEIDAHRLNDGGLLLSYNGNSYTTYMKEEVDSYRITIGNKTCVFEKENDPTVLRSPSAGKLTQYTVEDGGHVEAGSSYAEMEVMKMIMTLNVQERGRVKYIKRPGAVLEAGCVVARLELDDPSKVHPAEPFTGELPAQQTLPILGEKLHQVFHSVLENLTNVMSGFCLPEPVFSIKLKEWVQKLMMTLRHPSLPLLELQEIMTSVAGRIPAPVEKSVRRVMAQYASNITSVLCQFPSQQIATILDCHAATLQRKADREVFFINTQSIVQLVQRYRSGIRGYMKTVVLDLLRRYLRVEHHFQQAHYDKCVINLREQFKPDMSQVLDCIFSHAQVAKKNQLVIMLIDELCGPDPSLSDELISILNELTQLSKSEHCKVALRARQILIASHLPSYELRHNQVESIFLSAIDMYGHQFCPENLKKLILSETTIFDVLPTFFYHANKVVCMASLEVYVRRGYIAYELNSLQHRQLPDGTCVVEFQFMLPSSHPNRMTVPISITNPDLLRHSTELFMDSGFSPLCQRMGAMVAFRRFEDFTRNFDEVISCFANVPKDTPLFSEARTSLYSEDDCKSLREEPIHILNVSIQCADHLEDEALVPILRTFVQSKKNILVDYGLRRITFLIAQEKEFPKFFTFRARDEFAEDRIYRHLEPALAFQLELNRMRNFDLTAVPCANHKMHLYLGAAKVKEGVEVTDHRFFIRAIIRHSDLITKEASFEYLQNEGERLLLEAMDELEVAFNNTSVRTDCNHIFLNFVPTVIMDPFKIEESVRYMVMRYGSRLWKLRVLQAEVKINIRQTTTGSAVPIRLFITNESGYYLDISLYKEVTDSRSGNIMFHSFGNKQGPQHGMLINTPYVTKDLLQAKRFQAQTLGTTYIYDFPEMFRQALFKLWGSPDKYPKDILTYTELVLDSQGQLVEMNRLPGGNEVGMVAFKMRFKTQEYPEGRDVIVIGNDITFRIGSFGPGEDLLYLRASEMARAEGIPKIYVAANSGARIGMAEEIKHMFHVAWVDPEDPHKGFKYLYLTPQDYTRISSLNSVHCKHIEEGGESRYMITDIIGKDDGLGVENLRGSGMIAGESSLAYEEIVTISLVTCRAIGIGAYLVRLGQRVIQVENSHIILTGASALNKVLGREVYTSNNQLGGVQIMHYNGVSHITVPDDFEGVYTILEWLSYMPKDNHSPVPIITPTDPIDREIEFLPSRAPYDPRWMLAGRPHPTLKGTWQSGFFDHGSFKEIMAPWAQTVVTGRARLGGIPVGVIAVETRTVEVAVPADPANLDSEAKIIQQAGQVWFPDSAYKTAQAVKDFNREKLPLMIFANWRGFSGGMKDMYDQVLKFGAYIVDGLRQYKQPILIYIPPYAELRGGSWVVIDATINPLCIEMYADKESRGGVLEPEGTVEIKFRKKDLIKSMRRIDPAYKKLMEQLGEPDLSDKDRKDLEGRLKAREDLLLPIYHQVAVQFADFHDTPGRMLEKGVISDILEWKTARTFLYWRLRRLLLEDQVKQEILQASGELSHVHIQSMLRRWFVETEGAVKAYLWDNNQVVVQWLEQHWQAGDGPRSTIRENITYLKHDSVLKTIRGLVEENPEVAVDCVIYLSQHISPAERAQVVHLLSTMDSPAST
# Protocol: The inhibitory activity of the substances of this invention with regard to acetyl-CoA carboxylase 2 (ACC2) was measured using the ACC2 assay described in the paragraphs below. The basic principle of the assay is the measurement of adenosine diphosphate (ADP), which is formed as a by-product, by means of an HTRF®-based competitive immunoassay (HTRF=Homogeneous Time Resolved Fluorescence).
# The amount of complex of d2-labelled ADP and europium cryptate-labelled anti-ADP antibody was then determined by measuring the resonance energy transfer of europium cryptate to d2.
# [4] = biological target: T1, human ACC1 (acetyl-coenzyme A carboxylase alpha transcript variant 1) (Homo sapiens, UniProt Q13085); test: Human ACC1 enzyme assay, Assay B1 (ADP-Glo); type: biochemical
# T1 construct: FLAG (C); made in house; host or cells: baculovirus-infected insect cells (Hi5)
# [5] = system: MCF7; test: Cell proliferation assay (CellTiter-Glo, 96 h), MCF7; type: cell-based; details: Homo sapiens
# Protocol: In accordance with the invention, the substances were tested in cell-based assays for the ability of the substances of inhibiting tumour cell proliferation after a 96-hour incubation with the substance. Cell viability was tested using the CellTiter-Glo® luminescent cell viability assay (Promega). The cells were sown at a density of 2000-5000 cells/well (depending on the cell line) in 100 μl growth medium on 96-well microtitre plates. For each cell line examined, cells were sown on a separate plate to determine the luminescence at t=0 hours and t=96 hours. After overnight incubation at 37° C., the luminescence values for the t=0 samples were determined. The dose plates for the t=96 hours points in time were treated with substances diluted with growth medium. The cells were then incubated at 37° C. for 96 hours, and the luminescence values for the t=96 hours sample were then determined. For data analysis, the t=0 values were subtracted from the t=96 hour values for treated and untreated samples. The differences in luminescence in percent between substance-treated samples and control values were used to determine the growth inhibition in percent.
# The substances were tested in the following cell lines which represent the stated indications in an exemplary manner: […]
# [6] = Assay B1, read-out: ACC 1 (=B1) IC50
# [7] = Assay B1, ADP-Glo, read-out: ACC 1 (=B1) IC50
# [8] = MCF7, Table 9a, 96-hour incubation
SMILES,IC50 [1],"IC50 [4, 6]",IC50 ([5]; MCF7 cells),"IC50 [5, 8]",further results
"Cc1ccc(-c2ccc(Cl)c(F)c2)cc1C1=C(O)[C@]2(CC[C@H](C(F)(F)F)CC2)NC1=O [1-90, (5s,8s)-3-(4′-Chloro-3′-fluoro-4-methylbiphenyl-3-yl)-4-hydroxy-8-(trifluoromethyl)-1-azaspiro[4.5]dec-3-en-2-one]",595 nM,63 nM,,,IC50 [2]: 143 nM; IC50 [3]: 331 nM
"CO[C@H]1CC[C@]2(CC1)NC(=O)C(c1c(C)ccc(-c3ccc(Cl)cc3)c1C)=C2O [1-121, (5s,8s)-3-(4′-Chloro-2,4-dimethylbiphenyl-3-yl)-4-hydroxy-8-methoxy-1-azaspiro[4.5]dec-3-en-2-one]",1010 nM,,,,"IC50 [2]: 402 nM; IC50 ([5]; MCF7, Table 7, 96-hour incubation): 233 nM; IC50 [4]: 172 nM"
"Cc1cc(C)c(-c2ccc(Cl)cc2)c(C)c1C1=C(O)[C@]2(CC[C@@]3(CCCO3)CC2)OC1=O [2-31, (5r,8s)-3-(4′-chloro-2,4,6-trimethylbiphenyl-3-yl)-4-hydroxy-1,9-dioxadispiro[4.2.4.2]tetradec-3-en-2-one]",76 nM,,490 nM,,IC50 [4]: 2000 nM
"Cc1ccc(-c2ccc(Cl)cc2)c(C)c1C1=C(O)C2(CCC(OCC(F)(F)F)CC2)OC1=O (stereo not shown) [2-32, 3-(4′-chloro-2,4-dimethylbiphenyl-3-yl)-4-hydroxy-8-(2,2,2-trifluoroethoxy)-1-oxaspiro[4.5]dec-3-en-2-one]",2820 nM,,112 nM,,IC50 [4]: 339 nM
"Cc1cc(C)c(-c2ccc(Cl)cc2)cc1C1=C(O)C2(CCSCC2)OC1=O [2-42, 3-(4′-chloro-4,6-dimethylbiphenyl-3-yl)-4-hydroxy-1-oxa-8-thiaspiro[4.5]dec-3-en-2-one]",1560 nM,,466 nM,,"IC50 [4, 7]: 246 nM"
"Cc1cc(C)c(-c2ccc(Cl)cc2)cc1C1=C(O)C2(CCCCCC2)OC1=O [2-43, 3-(4′-chloro-4,6-dimethylbiphenyl-3-yl)-4-hydroxy-1-oxaspiro[4.6]undec-3-en-2-one]",737 nM,,263 nM,,IC50 [4]: 168 nM
"COC1CCC2(CC1)OC(=O)C(c1cc(-c3ccc(Cl)cc3)c(C)cc1C)=C2O (stereo not shown) [2-44, 3-(4′-chloro-4,6-dimethylbiphenyl-3-yl)-4-hydroxy-8-methoxy-1-oxaspiro[4.5]dec-3-en-2-one]",244 nM,,121 nM,,IC50 [4]: 220 nM
"Cc1cc(C)c(-c2ccc(Cl)cc2)cc1C1=C(O)C(C)OC1=O (stereo not shown) [2-45, 3-(4′-chloro-4,6-dimethylbiphenyl-3-yl)-4-hydroxy-5-methylfuran-2(5H)-one]",17500 nM,,6700 nM,,IC50 [4]: 1830 nM
"Cc1cc(C)c(-c2ccc(Cl)cc2)c(C)c1C1=C(O)C2(CCCCCC2)OC1=O [2-48, 3-(4′-chloro-2,4,6-trimethylbiphenyl-3-yl)-4-hydroxy-1-oxaspiro[4.6]undec-3-en-2-one]",417 nM,,762 nM,,"IC50 [4, 7]: 1540 nM"
"Cc1cc(C)c(-c2ccc(Cl)cc2)cc1C1=C(O)C2(CCCCC2)SC1=O [3-3, 3-(4′-chloro-4,6-dimethylbiphenyl-3-yl)-4-hydroxy-1-thiaspiro[4.5]dec-3-en-2-one]",1150 nM,265 nM,,575 nM,
"Cc1ccc(-c2ccc(C)c(C3=C(O)C4(CCCCC4)CC3=O)c2)cc1 [6-1, 3-(4,4′-dimethylbiphenyl-3-yl)-4-hydroxyspiro[4.5]dec-3-en-2-one]",19700 nM,411 nM,,545 nM,
"Cc1ccc(-c2ccc(Cl)cc2Cl)cc1C1=C(O)C2(CCCCC2)CC1=O [6-2, 3-(2′,4′-dichloro-4-methylbiphenyl-3-yl)-4-hydroxyspiro[4.5]dec-3-en-2-one]",3230 nM,263 nM,,194 nM,
"Cc1cc(C)c(-c2ccc(Cl)cc2)c(C)c1C1=C(O)C2(CCCCC2)CC1=O [6-9, 3-(4′-chloro-2,4,6-trimethylbiphenyl-3-yl)-4-hydroxyspiro[4.5]dec-3-en-2-one]",2120 nM,,,1520 nM,IC50 [4]: ≥ 20000 nM
"CCc1cc(C)cc(Br)c1C1=C(O)C2(CCCCC2)NC1=O [V-4, reference compound]",,,,,IC50 [2]: 5400 nM; IC50 [3]: > 20000 nM

# Now from value to molecule, other results behind:
IC50 [1],"IC50 [4, 6]",IC50 ([5]; MCF7 cells),"IC50 [5, 8]",SMILES,further results
1210 nM,523 nM,,605 nM,"CCC1CCC2(CC1)CC(=O)C(c1cc(-c3ccc(Cl)cc3)ccc1C)=C2O (stereo not shown) [6-5, 3-(4′-chloro-4-methylbiphenyl-3-yl)-8-ethyl-4-hydroxyspiro[4.5]dec-3-en-2-one]",
1250 nM,946 nM,,582 nM,"CCCC1CCC2(CC1)CC(=O)C(c1cc(-c3ccc(Cl)cc3)ccc1C)=C2O (stereo not shown) [6-6, 3-(4′-chloro-4-methylbiphenyl-3-yl)-4-hydroxy-8-propylspiro[4.5]dec-3-en-2-one]",
7190 nM,1030 nM,,338 nM,"Cc1ccc(-c2ccc(Cl)cc2)cc1C1=C(O)C2(CCCCCC2)CC1=O [6-7, 3-(4′-chloro-4-methylbiphenyl-3-yl)-4-hydroxyspiro[4.6]undec-3-en-2-one]",
151 nM,1160 nM,,254 nM,"Cc1cc(C)c(-c2ccc(Cl)cc2)cc1C1=C(O)C2(CCCCC2)CC1=O [6-8, 3-(4′-chloro-4,6-dimethylbiphenyl-3-yl)-4-hydroxyspiro[4.5]dec-3-en-2-one]",
13000 nM,1740 nM,,974 nM,"Cc1cc(C)c(-c2ccc(Cl)cc2)cc1C1=C(O)CC(C)(C)CC1=O [7-3, 2-(4′-chloro-4,6-dimethylbiphenyl-3-yl)-3-hydroxy-5,5-dimethylcyclohex-2-en-1-one]",
> 20000 nM,7110 nM,,2630 nM,"Cc1cc(C)c(-c2ccc(Cl)cc2)cc1C1=C(O)C(C)(C)CCC1=O [7-4, 2-(4′-chloro-4,6-dimethylbiphenyl-3-yl)-3-hydroxy-4,4-dimethylcyclohex-2-en-1-one]",
> 20000 nM,11200 nM,1720 nM,,"Cc1ccc(-c2ccc(Cl)cc2)cc1C1=C(O)C(C)(C)CNC1=O [9-2, 3-(4′-chloro-4-methylbiphenyl-3-yl)-4-hydroxy-5,5-dimethyl-5,6-dihydropyridin-2(1H)-one]",
> 20000 nM,2340 nM,1530 nM,,"Cc1ccc(-c2ccc(Cl)cc2)cc1C1=C(O)C2(CCCCC2)CNC1=O [9-3, 4-(4′-chloro-4-methylbiphenyl-3-yl)-5-hydroxy-2-azaspiro[5.5]undec-4-en-3-one]",
11200 nM,308 nM,1100 nM,,"Cc1ccc(-c2ccc(Cl)c(Cl)c2)cc1-c1c(O)c2ccc(Cl)cc2[nH]c1=O [9-7, 7-chloro-3-(3′,4′-dichloro-4-methyl-biphenyl-3-yl)-4-hydroxyquinolin-2(1H)-one]",
,397 nM,299 nM,,"Cc1ccc(-c2ccc(Cl)cc2)cc1-c1c(O)c2ccc(Cl)cc2[nH]c1=O [9-11, 7-chloro-3-(4′-chloro-4-methylbiphenyl-3-yl)-4-hydroxyquinolin-2(1H)-one]","IC50 ([1]; read-out: ACC 2 (=B2) IC50, Assay B2): 4070 nM"
> 20000 nM,6470 nM,1460 nM,,"Cc1ccc(-c2ccc(Cl)cc2)cc1C1=C(O)C(C)(C)C(C)(C)NC1=O [9-14, 3-(4′-chloro-4-methylbiphenyl-3-yl)-4-hydroxy-5,5,6,6-tetramethyl-5,6-dihydropyridin-2(1H)-one]",
